Where two headings read alike, the source gives them in different places.
Columns and labels:
Listeria monocytogenes = settings: for MIC (MEC): radial diffusion, MHB/1% agarose, overnight, 37°C
Protocol: (§1) The MEC of HBD-3 was assayed on a sub-selection of strains using a radial diffusion assay with some modifications. In brief, MHB/1% agarose was supplemented with glucose to an end-concentration of 0.1% (w/V) to enhance the growth of L. monocytogenes and improve the visualization of the inhibition zones. […] Following solidification on a leveling table, 1 mm wells were punched with a Pasteur pipette. Two-fold dilutions of HBD-3 were prepared in 0.01% acetic acid/0.1% bovine serum albumin to a concentration range of 0.25–256 μg/ml and 2 μl was added to each well. […] Each strain was tested in two independent trials.
(§2) The bacteria were prepared and mixed with MHB/1% agarose as described above and 50 ml gel was poured into 140 mm Petri dishes. The gel was allowed to solidify and 3 mm wells were punched. […] The plates were incubated overnight at 37°C and the MEC was read as described above.

Staphylococcus aureus = settings: for MIC (MEC): radial diffusion, MHB/1% agarose, overnight, 37°C
Protocol: as §1, §2

OO [hydrogen peroxide]
MEC values against L. monocytogenes (range over strains) (Listeria monocytogenes; radial diffusion assay, all strains tested): 0.12–0.94 % (V/V)
MIC (MEC) (Listeria monocytogenes; strain 2275 (EGD dps del)): 0.94 % (V/V)
MIC (MEC) (Listeria monocytogenes; strain 2307 (EGD resD del)): 0.12 % (V/V)
MIC (MEC) (Listeria monocytogenes; strain 2315 (EGD sigB del)): 0.94 % (V/V)
MIC (MEC) (Listeria monocytogenes; strain 2317 (EGD prfA del)): 0.94 % (V/V)
MIC (MEC) (Listeria monocytogenes; strain 2374 (EGD perR ins)): 0.94 % (V/V)
MIC (MEC) (Listeria monocytogenes; strain 2375 (EGD perR del)): 0.94 % (V/V)
MIC (MEC) (Listeria monocytogenes; strain 4239): 0.23 % (V/V)
MIC (MEC) (Listeria monocytogenes; strain 4446): 0.47 % (V/V)
MIC (MEC) (Listeria monocytogenes; strain 4459): 0.23 % (V/V)
MIC (MEC) (Listeria monocytogenes; strain 4666): 0.18 % (V/V)
MIC (MEC) (Listeria monocytogenes; strain 6895): 0.35 % (V/V)
MIC (MEC) (Listeria monocytogenes; strain 7291): 0.47 % (V/V)
MIC (MEC) (Listeria monocytogenes; strain 7418): 0.18 % (V/V)
MIC (MEC) (Listeria monocytogenes; strain EGD (wildtype)): 0.47 % (V/V)
MIC (MEC) (Listeria monocytogenes; strain H13-1): 0.94 % (V/V)
MIC (MEC) (Listeria monocytogenes; strain LO28 (wildtype)): 0.47 % (V/V)
MIC (MEC) (Listeria monocytogenes; strain La22): 0.23 % (V/V)
MIC (MEC) (Listeria monocytogenes; strain La111): 0.94 % (V/V)
MIC (MEC) (Listeria monocytogenes; strain M103-1): 0.94 % (V/V)
MIC (MEC) (Listeria monocytogenes; strain N53-1): 0.47 % (V/V)
MIC (MEC) (Listeria monocytogenes; strain No40-1): 0.47 % (V/V)
MIC (MEC) (Listeria monocytogenes; strain O57): 0.47 % (V/V)
MIC (MEC) (Listeria monocytogenes; strain R479a): 0.47 % (V/V)
MIC (MEC) (Listeria monocytogenes; strain V518a): 0.94 % (V/V)
MEC values against S. aureus (range over strains) (Staphylococcus aureus): 0.12–0.47 % (V/V)
MIC (MEC) (Staphylococcus aureus; strain ΔdltA (Sa113 dltA ins)): 0.23 % (V/V)
MIC (MEC) (Staphylococcus aureus; strain ΔmprF (Sa113 mprF del)): 0.12 % (V/V)

— PMC2639596, “Antimicrobial peptides effectively kill a broad spectrum of Listeria monocytogenes and Staphylococcus aureus strains independently of origin, sub-type, or virulence factor expression” (BMC Microbiology, 2008)
